Earlier results on one molecule are cited in patent US20100104638A1 (priority 2008, published 2010).

The structures appear in SMILES notation.

As to `CC(=O)Nc1ccc(O)cc1` [Acetaminophen, N-(4-hydroxyphenyl) acetamide], the Aqueous solubility entry is on record as “about 14 mg/ml”.
